# Test results as given in US10670605B2, “Cysteine reactive probes and uses thereof” (The Scripps Research Institute, priority 2015, dated 2020).
# Columns and labels:
# Assay in all cases: Competitive isoTOP-ABPP in situ (fragment-treated cells)
# Type in all cases: cell-based
# [1] = biological target: T1, cysteines in MDA-MB-231 and Ramos cells (Homo sapiens, UniProt Q9NPH0)
# T1 sequence (Q9NPH0 33-428): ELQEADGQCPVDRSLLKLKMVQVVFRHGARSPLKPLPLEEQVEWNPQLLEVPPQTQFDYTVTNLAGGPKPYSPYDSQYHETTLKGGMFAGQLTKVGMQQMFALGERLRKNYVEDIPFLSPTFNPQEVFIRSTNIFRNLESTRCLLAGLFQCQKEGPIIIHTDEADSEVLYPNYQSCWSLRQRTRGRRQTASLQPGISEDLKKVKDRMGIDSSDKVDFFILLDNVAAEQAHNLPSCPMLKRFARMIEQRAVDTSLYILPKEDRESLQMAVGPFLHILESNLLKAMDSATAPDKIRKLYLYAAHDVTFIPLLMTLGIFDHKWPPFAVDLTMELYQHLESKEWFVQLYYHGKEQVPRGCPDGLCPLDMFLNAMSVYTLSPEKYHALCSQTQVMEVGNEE
# [2] = biological target: T2, cysteines in MDA-MB-231 and Ramos cells (Homo sapiens, UniProt P24468)
# T2 sequence (P24468 1-414): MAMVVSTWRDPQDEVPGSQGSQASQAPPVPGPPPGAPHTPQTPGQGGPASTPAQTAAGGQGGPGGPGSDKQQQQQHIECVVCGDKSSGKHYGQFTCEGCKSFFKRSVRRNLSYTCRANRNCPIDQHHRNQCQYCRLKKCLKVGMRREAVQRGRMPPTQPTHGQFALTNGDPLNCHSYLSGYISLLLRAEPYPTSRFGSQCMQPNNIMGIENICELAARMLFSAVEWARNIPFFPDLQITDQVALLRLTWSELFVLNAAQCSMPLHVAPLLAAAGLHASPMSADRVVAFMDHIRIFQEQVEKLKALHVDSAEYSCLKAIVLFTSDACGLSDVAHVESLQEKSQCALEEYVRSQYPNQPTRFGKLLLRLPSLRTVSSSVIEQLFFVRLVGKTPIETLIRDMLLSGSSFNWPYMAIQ
# [3] = biological target: T3, cysteines in MDA-MB-231 and Ramos cells (Homo sapiens, UniProt Q86UY8)
# T3 sequence (Q86UY8 1-548): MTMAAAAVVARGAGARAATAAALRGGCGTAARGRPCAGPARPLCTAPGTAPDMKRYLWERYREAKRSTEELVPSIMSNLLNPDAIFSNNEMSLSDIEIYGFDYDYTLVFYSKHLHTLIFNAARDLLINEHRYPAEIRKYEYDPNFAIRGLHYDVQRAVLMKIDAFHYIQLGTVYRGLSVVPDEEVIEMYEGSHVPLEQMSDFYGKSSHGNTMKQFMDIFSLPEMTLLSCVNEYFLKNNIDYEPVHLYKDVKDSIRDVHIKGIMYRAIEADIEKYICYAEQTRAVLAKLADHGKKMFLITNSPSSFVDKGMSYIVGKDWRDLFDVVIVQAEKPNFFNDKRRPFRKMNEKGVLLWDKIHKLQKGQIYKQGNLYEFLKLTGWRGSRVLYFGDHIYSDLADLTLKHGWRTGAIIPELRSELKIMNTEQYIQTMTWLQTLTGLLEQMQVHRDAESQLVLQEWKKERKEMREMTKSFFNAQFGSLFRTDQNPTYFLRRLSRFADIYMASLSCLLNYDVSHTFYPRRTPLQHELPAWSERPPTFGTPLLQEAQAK
# [4] = biological target: cysteines in MDA-MB-231 and Ramos cells (Homo sapiens, UniProt Q96EY5)
# [5] = biological target: cysteines in MDA-MB-231 and Ramos cells (Homo sapiens, UniProt Q9Y6G9)
# [6] = biological target: T4, cysteines in MDA-MB-231 and Ramos cells (Homo sapiens, UniProt P19447)
# T4 sequence (P19447 1-782): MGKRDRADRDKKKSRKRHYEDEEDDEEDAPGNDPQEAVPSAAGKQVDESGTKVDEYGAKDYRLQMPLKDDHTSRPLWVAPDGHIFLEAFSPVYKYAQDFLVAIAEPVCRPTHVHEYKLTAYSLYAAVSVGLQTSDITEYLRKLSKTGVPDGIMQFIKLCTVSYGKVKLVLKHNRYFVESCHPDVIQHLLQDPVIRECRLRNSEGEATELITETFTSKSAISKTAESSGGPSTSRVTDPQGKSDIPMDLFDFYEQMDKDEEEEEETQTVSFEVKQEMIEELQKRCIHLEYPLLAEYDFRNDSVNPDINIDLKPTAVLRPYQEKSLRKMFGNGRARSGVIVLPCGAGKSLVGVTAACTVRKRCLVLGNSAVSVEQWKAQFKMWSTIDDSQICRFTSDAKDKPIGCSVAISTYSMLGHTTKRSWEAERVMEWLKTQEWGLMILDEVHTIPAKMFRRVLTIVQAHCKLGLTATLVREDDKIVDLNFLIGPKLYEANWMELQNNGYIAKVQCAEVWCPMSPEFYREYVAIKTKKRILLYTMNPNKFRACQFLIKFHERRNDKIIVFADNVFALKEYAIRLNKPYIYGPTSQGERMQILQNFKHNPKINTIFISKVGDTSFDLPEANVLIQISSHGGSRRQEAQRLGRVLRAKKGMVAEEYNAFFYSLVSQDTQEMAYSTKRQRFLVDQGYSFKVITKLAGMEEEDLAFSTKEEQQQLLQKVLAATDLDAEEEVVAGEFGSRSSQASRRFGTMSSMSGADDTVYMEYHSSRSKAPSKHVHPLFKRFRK
# [7] = biological target: T5, cysteines in MDA-MB-231 and Ramos cells (Homo sapiens, UniProt Q8WVV9)
# T5 sequence (Q8WVV9 1-542): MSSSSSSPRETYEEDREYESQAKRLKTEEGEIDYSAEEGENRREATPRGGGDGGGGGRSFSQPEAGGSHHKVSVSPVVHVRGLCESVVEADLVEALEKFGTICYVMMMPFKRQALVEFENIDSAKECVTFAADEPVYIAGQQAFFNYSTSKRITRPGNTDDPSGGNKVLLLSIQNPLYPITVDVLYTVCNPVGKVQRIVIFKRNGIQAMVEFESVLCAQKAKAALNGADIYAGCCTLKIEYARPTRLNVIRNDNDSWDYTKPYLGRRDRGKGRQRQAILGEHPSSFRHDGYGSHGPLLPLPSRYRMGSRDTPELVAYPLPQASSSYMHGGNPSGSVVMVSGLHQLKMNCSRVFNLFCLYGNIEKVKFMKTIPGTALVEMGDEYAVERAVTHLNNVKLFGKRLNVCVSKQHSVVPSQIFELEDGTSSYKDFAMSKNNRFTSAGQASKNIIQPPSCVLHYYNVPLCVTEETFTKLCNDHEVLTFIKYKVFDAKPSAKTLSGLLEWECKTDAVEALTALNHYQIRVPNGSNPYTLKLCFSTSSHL
# Sequence of cysteines in MDA-MB-231 and Ramos cells (Homo sapiens, UniProt Q9Y6G9) (Q9Y6G9 whole entry): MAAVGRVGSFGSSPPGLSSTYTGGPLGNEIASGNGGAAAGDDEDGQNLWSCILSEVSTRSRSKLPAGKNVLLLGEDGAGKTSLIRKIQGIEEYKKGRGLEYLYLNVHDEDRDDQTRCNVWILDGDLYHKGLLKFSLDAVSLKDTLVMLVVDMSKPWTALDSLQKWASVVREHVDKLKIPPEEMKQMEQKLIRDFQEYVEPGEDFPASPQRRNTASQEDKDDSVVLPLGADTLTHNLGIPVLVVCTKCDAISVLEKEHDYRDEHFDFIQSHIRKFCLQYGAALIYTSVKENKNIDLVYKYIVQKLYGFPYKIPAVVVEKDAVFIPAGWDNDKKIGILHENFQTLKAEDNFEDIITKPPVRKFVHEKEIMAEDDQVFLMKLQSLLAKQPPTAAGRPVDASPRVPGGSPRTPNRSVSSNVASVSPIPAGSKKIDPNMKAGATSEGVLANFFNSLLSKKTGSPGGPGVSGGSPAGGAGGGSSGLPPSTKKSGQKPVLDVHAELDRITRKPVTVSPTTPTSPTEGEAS
smiles,measurement,setting,value
CC(C)CCOCCNC(=O)CCl [compound 27],isoTOP-ABPP ratio Q9NPH0_C267,"[1]; 200 μM, insitu, 231",1.3
same,isoTOP-ABPP ratio P24468_C326,"[2]; 200 μM, insitu, 231",1.2
same,isoTOP-ABPP ratio Q86UY8_C276,"[3]; 200 μM, insitu, 231",1.7
same,isoTOP-ABPP ratio Q96EY5_C231,"[4]; 200 μM, insitu, 231",0.6
same,isoTOP-ABPP ratio Q9Y6G9_C51,"[5]; 200 μM, insitu, 231",0.6
COc1cc2c(cc1OC)CN(C(=O)CCl)CC2 [compound 8],isoTOP-ABPP reactivity P19447_C342 ERCC3,"[6]; 200 μM, insitu, 231",12.4
same,isoTOP-ABPP reactivity Q9NPH0_C267 ACP6,"[1]; 200 μM, insitu, 231",20.0
same,isoTOP-ABPP reactivity P24468_C326 NR2F2,"[2]; 200 μM, insitu, 231",20.0
same,isoTOP-ABPP reactivity Q9Y6G9_C51 DYNC1LI1,"[5]; 200 μM, insitu, 231",4.1
COc1ccc(C2CC(c3cccs3)=NN2C(=O)CCl)cc1 (stereo not shown) [compound 4],isoTOP-ABPP reactivity Q9NPH0_C267 ACP6,[1]; 100 μM in situ 231,20.0
same,isoTOP-ABPP reactivity P24468_C326 NR2F2,[2]; 100 μM in situ 231,20.0
same,isoTOP-ABPP reactivity Q96EY5_C231 FAM125A,[4]; 100 μM in situ 231,1.7
same,isoTOP-ABPP reactivity Q9Y6G9_C51 DYNC1LI1,[5]; 100 μM in situ 231,3.5
O=C(CCl)Nc1cccc2ncccc12 [compound 51],isoTOP-ABPP ratio Q8WVV9_C464,"[7]; 200 μM, insitu, 231",3.2
same,isoTOP-ABPP ratio Q86UY8_C276,"[3]; 200 μM, insitu, 231",1.2
COc1ccccc1OCCNC(=O)CCl [compound 28],isoTOP-ABPP ratio Q9Y6G9_C51,"[5]; 200 μM, insitu, 231",0.7
O=C(CCl)N1CCN(S(=O)(=O)c2ccccc2F)CC1 [compound 10],isoTOP-ABPP ratio P19447_C342,"[6]; 200 μM, insitu, 231",20.0
same,"isoTOP-ABPP ratio, cysteine Q9NPH0_C267","[1]; 200 μM, insitu, 231",13.4
same,"isoTOP-ABPP ratio, cysteine P24468_C326","[2]; 200 μM, insitu, 231",20.0
same,isoTOP-ABPP ratio Q86UY8_C276,"[3]; 200 μM, insitu, 231",5.8
same,isoTOP-ABPP ratio Q9Y6G9_C51,"[5]; 200 μM, insitu, 231",4.9
CC1CCc2ccccc2N1C(=O)CCl (stereo not shown) [compound 45],isoTOP-ABPP ratio P19447_C342,"[6]; 200 μM, insitu, 231",5.9
same,isoTOP-ABPP ratio Q9NPH0_C267,"[1]; 200 μM, insitu, 231",20.0
same,isoTOP-ABPP ratio Q8WVV9_C464,"[7]; 200 μM, insitu, 231",20.0
same,isoTOP-ABPP ratio P24468_C326,"[2]; 200 μM, insitu, 231",20.0
same,isoTOP-ABPP ratio Q86UY8_C276,"[3]; 200 μM, insitu, 231",2.1
Cc1ccc(C=C(C#N)C(=O)NCCN2CCOCC2)cc1 [compound 41],isoTOP-ABPP ratio P19447_C342,"[6]; 200 μM, insitu, 231",0.7
same,isoTOP-ABPP ratio P24468_C326,"[2]; 200 μM, insitu, 231",0.8
same,isoTOP-ABPP ratio Q86UY8_C276,"[3]; 200 μM, insitu, 231",1.7
same,isoTOP-ABPP ratio Q9Y6G9_C51,"[5]; 200 μM, insitu, 231",0.7
COc1ccc2c(c1)CCCN2C(=O)CCl [compound 2],isoTOP-ABPP reactivity P24468_C326 NR2F2,"[2]; 200 μM, insitu, 231",20.0
same,isoTOP-ABPP reactivity Q86UY8_C276 NT5DC3,"[3]; 200 μM, insitu, 231",3.8
same,isoTOP-ABPP reactivity Q96EY5_C231 FAM125A,"[4]; 200 μM, insitu, 231",4.1
C=CC(=O)Nc1cc(F)c(N2CCN(C(=O)OC(C)(C)C)CC2)c(F)c1 [compound 38],isoTOP-ABPP ratio P19447_C342,"[6]; 200 μM, insitu, 231",1.0
same,isoTOP-ABPP ratio Q8WVV9_C464,"[7]; 200 μM, insitu, 231",1.5
same,isoTOP-ABPP ratio Q96EY5_C231,"[4]; 200 μM, insitu, 231",1.8
O=C(CCl)NC(=O)NC12CC3CC(CC(C3)C1)C2 [compound 12],isoTOP-ABPP ratio P19447_C342,"[6]; 200 μM, insitu, 231",6.7
same,"isoTOP-ABPP ratio, cysteine Q8WVV9_C464","[7]; 200 μM, insitu, 231",20.0
same,isoTOP-ABPP ratio Q86UY8_C276,"[3]; 200 μM, insitu, 231",20.0
same,isoTOP-ABPP ratio Q9Y6G9_C51,"[5]; 200 μM, insitu, 231",6.5
C=CC(=O)N(Cc1cccnc1)c1cc(C(F)(F)F)cc(C(F)(F)F)c1 [compound 31],isoTOP-ABPP ratio Q9Y6G9_C51,"[5]; 200 μM, insitu, ramos",1.6
Cn1cc(S(=O)(=O)N2CCOCC2)cc1C(=O)NC(=O)CCl [compound 11],isoTOP-ABPP ratio P19447_C342,[6]; 100 μM in situ 231,0.7
same,"isoTOP-ABPP ratio, cysteine Q8WVV9_C464",[7]; 100 μM in situ 231,0.9
same,"isoTOP-ABPP ratio, cysteine P24468_C326",[2]; 100 μM in situ 231,0.9
same,isoTOP-ABPP ratio Q86UY8_C276,[3]; 100 μM in situ 231,1.4
same,"isoTOP-ABPP ratio, cysteine Q96EY5_C231",[4]; 100 μM in situ 231,0.7
O=C(CCl)NCCc1c[nH]c2ccccc12 [compound 13],isoTOP-ABPP ratio P19447_C342,"[6]; 200 μM, insitu, 231",1.1
same,isoTOP-ABPP ratio Q86UY8_C276,"[3]; 200 μM, insitu, 231",1.5
same,isoTOP-ABPP ratio Q9Y6G9_C51,"[5]; 200 μM, insitu, ramos",1.5
O=C(CCl)N1CCN(CC(=O)N2CCOCC2)CC1 [compound 29],isoTOP-ABPP ratio Q9NPH0_C267,"[1]; 200 μM, insitu, ramos",2.1
same,isoTOP-ABPP ratio Q96EY5_C231,"[4]; 200 μM, insitu, ramos",1.1
O=C(CCl)NC12CC3CC(CC(C3)C1)C2 [compound 21],isoTOP-ABPP ratio P19447_C342,"[6]; 200 μM, insitu, 231",2.0
same,"isoTOP-ABPP ratio, cysteine Q8WVV9_C464","[7]; 200 μM, insitu, 231",1.4
same,"isoTOP-ABPP ratio, cysteine P24468_C326","[2]; 200 μM, insitu, 231",1.1
same,isoTOP-ABPP ratio Q86UY8_C276,"[3]; 200 μM, insitu, 231",1.8
same,"isoTOP-ABPP ratio, cysteine Q96EY5_C231","[4]; 200 μM, insitu, 231",0.7
same,isoTOP-ABPP ratio Q9Y6G9_C51,"[5]; 200 μM, insitu, 231",0.6
O=C(CCl)N1CCC(Cc2ccccc2)CC1 [compound 9],isoTOP-ABPP reactivity Q96EY5_C231 FAM125A,"[4]; 200 μM, insitu, 231",1.9
